Publication PMC2694832, “Pharmacokinetics, tissue distribution and mass balance of radiolabeled dihydroartemisinin in male rats” (Malaria Journal, 2009)
Values joined by “and” are separate entries in the source; they are usually repeats but may differ in a detail not shown here. Identical values can stand only once.

Assays:
[1] = Mass balance and urinary/faecal elimination of [^14C] DHA; assay type: in vivo, rats; settings: rats i.v. 3 mg/kg
Description: Metabolic cages were washed with a solution of 2% Count-off® (Perkin-Elmer Life and Analytical Sciences, Boston, Massachusetts, USA) and the volume was measured. Duplicate portions (0.1 ml urine; 1 ml cage rinse) of each sample were radio-assayed after the addition of scintillation cocktail. The weights of individual faecal samples were obtained and the samples were subsequently homogenized in four volumes of de-ionized water. Quadruplicate portions (1.0 ml) of each homogenate were decolourized with 30% hydrogen peroxide, and digested with Solvable® tissue solubilizer. After acidification with glacial acetic acid and addition of scintillation cocktail, samples were assayed for radioactivity. The samples were kept in at -20°C for two weeks prior to analysis.

[2] = Metabolic profile of [^14C] DHA (free, glucuronide and other conjugation fractions); assay type: in vivo, rats; settings: for drug conjugation of the dose: rats i.v. 3 mg/20 μCi/kg
Description: About 2 ml of plasma and urine, and 1 – 2 g of faeces were used. Conjugates were hydrolyzed by glucuronidase (1000 FU/ml, Sigma-Aldrich, St. Louis, MO) at pH 4.6, 38°C for 24 hours. Active enzyme was checked by phenophthaleinglucuronide at the end of incubation. Urine and faecal samples were incubated for 48 hours and fresh enzyme was added after 24 hours. Total radioactivity in free, conjugated, and the remaining aqueous fractions were measured with liquid scintillation counters. Protein precipitates were dissolved in Solvable^R (200 mg in 1 ml) and counted for radioactivity after addition of scintillation cocktail.

human plasma proteins = test: Protein binding of [^14C] DHA, equilibrium dialysis, human plasma; assay type: in vitro ADME
Description: Human blood samples (five men and five women) were freshly obtained from subject volunteers at the Department of Clinical Trials, WRAIR. Rat samples were freshly collected from five male and five female rats. Equilibrium dialysis was performed using Teflon dialysis chambers and Diachema standard membranes as described by Li and Hümpel. The GD-4/90 Equilibrium Dialyzer (MM Developments, Ottawa) contained 20 micro-dialysis cells (2.0 ml/chamber). The molecular weight cutoff for dialysis membranes was 5000 D. Equilibrium was reached after four hours, when cells were rotated at 16 rpm and 37°C. Drugs were dissolved in plasma samples with various concentrations (0.15 – 57800 ng/ml) and all experiments were carried out for five hours.

[3] = Feces, listed as [^14C] dihydroartemisinin, 3 mg/kg
[4] = Total, through 192 hours, 3 mg/kg
[5] = Total, through 192 hours, listed as [^14C] dihydroartemisinin, 3 mg/kg
[6] = Urine, listed as [^14C] dihydroartemisinin, 3 mg/kg

C[C@@H]1CC[C@H]2[C@@H]([14CH3])C(O)O[C@@H]3O[C@@]4(C)CC[C@@H]1[C@]32OO4 (some centres unmarked) [[^14C] DHA, [16-^14C] DHA]
Fecal excretion of total radiolabel (Feces) ([1]; 0.04–0.33 days): 1.52 ± 0.58 % of dose
Fecal excretion of total radiolabel (Feces) ([1]; 0.33–1.0 days): 29.56 ± 11.75 % of dose
Fecal excretion of total radiolabel (Feces) ([1]; 1–2 days): 6.14 ± 1.71 % of dose
Fecal excretion of total radiolabel (Feces) ([1]; 2–3 days): 1.64 ± 0.78 % of dose
Fecal excretion of total radiolabel (Feces) ([1]; 3–4 days): 0.78 ± 0.31 % of dose
Fecal excretion of total radiolabel (Feces) ([1]; 4–5 days): 0.46 ± 0.09 % of dose
Fecal excretion of total radiolabel (Feces) ([1]; 5–6 days): 0.15 ± 0.06 % of dose
Fecal excretion of total radiolabel (Feces) ([1]; 6–7 days): 0.11 ± 0.05 % of dose
Fecal excretion of total radiolabel (Feces) ([1]; 7–8 days): 0.04 ± 0.04 % of dose
Peak height ([1]; Feces, 3 mg/kg): 292.39 μg/rat
Peak time ([1]; Feces, 3 mg/kg): 0.67 days
Peak height [1, 3]: 292.39 ± 150.29 μg/rat
Peak time [1, 3]: 0.67 ± 0.09 days
Fecal excretion of total radiolabel (Feces) [1, 4]: ~40.39 % of dose and ~40 % of dose
Total radiolabel in Cage wash [1, 4]: ~1.88 % of dose
Fecal excretion of total radiolabel (Feces) [1, 5]: 40.39 ± 13.22 % of dose
Total radiolabel in Cage wash [1, 5]: 1.88 ± 2.27 % of dose
Peak time ([1]; Urine, 3 mg/kg): 0.37 days
Peak height [1, 6]: 234.48 ± 33.74 μg/rat
Peak time [1, 6]: 0.37 ± 0.06 days
lag time of elimination ([1]; faeces): 0.31 days
Ratio of excretion (urine/feces) [1]: 1.37 ± 0.39
faecal excretion, range among animals ([1]; through 192 hours): 27–53 % of the administered dose
urinary excretion, range among animals ([1]; through 192 hours): 44–61 % of the administered dose
total dose excreted within first 24 hours ([1]; urine and faeces): greater than 74.76%
lag time of elimination ([1]; urine): < 0.02 days
ratio of conjugation to free ([2]; plasma, 10 minutes): 1.86
ratio of conjugation to free ([2]; plasma, 1 hour after dosing): 4.48
ratio of conjugation to free ([2]; plasma, 192 hours): 15.1
ratio of conjugation to free ([2]; plasma, within five minutes after dosing): 1.07
drug conjugation of the dose ([2]; plasma): up to 89%
drug conjugation of the dose ([2]; urine): ≤ 95%
maximum binding percentage (human plasma proteins; human plasma, concentration range 0.15 – 462 ng/ml): 82%
binding percentage declined to, at higher concentrations (human plasma proteins; human plasma, higher concentrations (> 25 ng/ml)): 66%
plasma protein binding percentage (human plasma proteins; undiluted human plasma, 0.15 to 57800 ng/ml, 37°C, five hours): 76–82%
